From patent US20240398822A1, “METHODS AND COMPOSITIONS FOR TREATING AND MANAGING ALZHEIMER'S DISEASE” (Pharmatrophix, Inc., priority 2021, published 2024)

Columns and labels:
neurogranin = assay: Phase IIa CSF post-synaptic biomarker neurogranin (NG-36); type: in vivo, human
Description: CSF samples were obtained at screening Visit and final Visit via lumbar puncture to determine levels of tau, p-tau, Aβ40, Aβ42 and AChE activity as an initial set of CSF biomarkers. Aliquots of CSF were made available for emerging CSF biomarker methods such as measurement of additional biomarkers including neurofilaments light chain, neurogranin, SNAP-25, synaptotagmin, YKL-40, TREM2, tau oligomers and for measurement of drug level in selected patients based on the time period between last dose of drug and CSF sampling (FIG. 25 and FIG. 58).
Baseline CSF samples are obtained prior to administration via lumbar puncture. These samples are used to determine levels of tau, p-tau, Aβ40, Aβ42, AChE, neurofilament light chain, SNAP-25, synaptotagmin-1, neurogranin, sTREM, and YKL-40. Aliquots of CSF are also made available for emerging CSF biomarker methods such as measurement of tau oligomers and for measurement of drug level in selected patients based on time period between last dose of the salt of Formula (II) and CSF sampling. […] Many of these biomarkers can also be measured in blood or plasma. The change in values over the time period from pre-treatment to post-treatment are of particular importance. […] Absolute levels at single time points of neurofilament light chain, SNAP-25, synaptotagmin-1, neurogranin, sTREM, and YKL-40 in CSF or blood or plasma are of less value given differences in assay techniques and wide variation in absolute levels within normal subjects and within and across AD subjects. In contrast, absolute levels of Aβ42 and 40 at baseline are useful biomarkers indicating the presence of amyloid pathology as low levels of Aβ42 and 40 at a given time point are consistent with amyloid pathology.

[1] = Phase 1 SAD/MAD pharmacokinetics; type: in vivo; conditions: in vivo
Description: The phase 1 study was placebo controlled and double blinded and included 52 subjects in SAD studies and 20 subjects in MAD studies.

[2] = Estimating human brain exposure to drug; type: in vivo; conditions: oral dosing at 200 mg bid and 400 mg bid
Method: Key inclusion criteria for the 2a trial include a diagnosis of mild-moderate AD by McKhann criteria and a CSF measure of Ab 42/40 ratio under 0.089 OR a Ab 42 level <550 ng/L (FIG. 28). These criteria are discussed in Schindler et al. 2018.

[3] = Drug substance stability on storage and under accelerated/ICH stress conditions; type: physicochemical
Method: Preparation of the clinical dosage form consists of a dry fill of the drug substance into gelatin capsules with no excipients. For the Phase II study, capsules with the salt of Formula (II)(200 mg or 400 mg, free base weight) are machine-filled and packaged in blister strips with aluminum foil backing, which are stored in cardboard boxes. Matching placebo capsules are also available in the same packaging.

With `CC[C@H](C)[C@H](N)C(=O)NCCN1CCOCC1` [LM11A-31-BHS, Tris[(2S,3S)-2-amino-3-methyl-N-(2-morpholinoethyl)pentanamide] tetra(monohydrogensulfate), monosulfate] the “CSF neurogranin-36, drug dose analysis” value (neurogranin; 200 mg dose versus placebo) was “significant lowering of NG-36”, the “CSF neurogranin-36, drug dose analysis” value (neurogranin; 400 mg dose versus placebo) was “trend for reduction” and the “CSF neurogranin levels in the drug group” value (neurogranin; combined drug group, 6 months, p=0.02) was “significant decrease”. For the same compound, the food effect ([1]; human) was “fed subjects having a higher LM11A-31 parent exposure than fasted subjects”, the “time to reach steady state upon multiple dosing” value ([1]; human) was “approximately 5 days post dose” and the “gender difference in exposure” value [1] was “female subjects having a greater exposure than males”. The “pharmacokinetics after single oral doses” value ([1]; po) was “linear pharmacokinetics”, the “estimated human brain levels of drug” value [2] was “in a range found to engage target mechanisms and derive therapeutic benefit in mouse models” and the “impurities following storage at ICH stress conditions” value ([3]; GMP lots) was “no impurities above the LOD”. The “changes related to assay or impurities” value ([3]; Phase I drug substance lot, six months accelerated conditions, or 48 months at 25° C./60% RH) was “no significant changes”, the “stability under accelerated temperature and humidity conditions” value ([3]; drug substance) was “very good stability” and the “changes in the drug substance on storage” value ([3]; through 18 months at −20° C., 5° C., 25° C./60% RH or 40° C./75% RH, other than moisture content) was “no significant changes”.
